In patent publication US20110039825A1, “LIGANDS OF ALPHA-ADRENOCEPTORS, DOPAMINE, HISTAMINE, IMIDAZOLINE AND SEROTONIN RECEPTORS AND THEIR USE” (Alla Chem, LLC, priority 2007, published 2011):

What was measured:
[1] = molecular target: T1, recombinant human 5-HT1A (Homo sapiens, UniProt P08908); experiment: radioligand binding to serotonin receptor 5-HT1A ([3H] 8-OH-DPAT); conditions: for 5-HT1A % inhibition: 10 μM ligand; for inhibition at 1 µM: ligand concentration 1 μM
T1 construct: expressed in transfected cells; host or cells: CHO
T1 sequence (P08908 1-422): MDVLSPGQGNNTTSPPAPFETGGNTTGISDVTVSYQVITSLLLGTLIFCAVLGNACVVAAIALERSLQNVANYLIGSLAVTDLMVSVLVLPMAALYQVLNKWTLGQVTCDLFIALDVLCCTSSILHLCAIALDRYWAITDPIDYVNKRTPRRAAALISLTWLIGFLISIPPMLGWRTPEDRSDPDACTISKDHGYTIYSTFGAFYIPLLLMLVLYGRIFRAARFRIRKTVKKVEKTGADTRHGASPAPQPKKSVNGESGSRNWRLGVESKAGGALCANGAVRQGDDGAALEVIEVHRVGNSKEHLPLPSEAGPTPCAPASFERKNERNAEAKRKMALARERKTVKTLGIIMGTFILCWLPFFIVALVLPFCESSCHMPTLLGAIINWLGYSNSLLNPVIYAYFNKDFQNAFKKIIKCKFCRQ
Text: J Pharmacol Exp Ther. 306(1): 301-309, 2003]. […] Metergoline is used as positive control.

[2] = molecular target: T2, recombinant human 5-HT6 receptor (Homo sapiens, UniProt P50406); experiment: radioligand binding to serotonin receptor 5-HT6 ([3H] Lysergic acid diethylamide)
T2 construct: expressed in transfected cells; host or cells: HeLa
T2 sequence (P50406 whole entry): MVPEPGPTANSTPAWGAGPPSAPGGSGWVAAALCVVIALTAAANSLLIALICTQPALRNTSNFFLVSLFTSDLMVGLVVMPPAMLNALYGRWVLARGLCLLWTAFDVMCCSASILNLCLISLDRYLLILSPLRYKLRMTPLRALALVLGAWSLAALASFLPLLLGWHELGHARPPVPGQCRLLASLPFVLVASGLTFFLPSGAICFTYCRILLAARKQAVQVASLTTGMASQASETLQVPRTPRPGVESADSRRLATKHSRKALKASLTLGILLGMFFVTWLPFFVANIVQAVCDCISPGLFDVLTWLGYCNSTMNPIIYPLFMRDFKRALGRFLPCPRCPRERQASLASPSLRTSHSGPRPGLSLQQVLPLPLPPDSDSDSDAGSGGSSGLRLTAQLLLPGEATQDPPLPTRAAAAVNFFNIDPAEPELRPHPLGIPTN
Text: Mol. Pharmacol. 43:320-327, 1993]. […] Methiothepin is used as positive control.

[3] = molecular target: T3, human 5-HT7 receptor (Homo sapiens, UniProt P34969); experiment: radioligand binding to serotonin receptor 5-HT7 ([3H] Lysergic acid diethylamide); conditions: 10 μM ligand
T3 construct: expressed in transfected cells; host or cells: CHO
T3 sequence (P34969 whole entry): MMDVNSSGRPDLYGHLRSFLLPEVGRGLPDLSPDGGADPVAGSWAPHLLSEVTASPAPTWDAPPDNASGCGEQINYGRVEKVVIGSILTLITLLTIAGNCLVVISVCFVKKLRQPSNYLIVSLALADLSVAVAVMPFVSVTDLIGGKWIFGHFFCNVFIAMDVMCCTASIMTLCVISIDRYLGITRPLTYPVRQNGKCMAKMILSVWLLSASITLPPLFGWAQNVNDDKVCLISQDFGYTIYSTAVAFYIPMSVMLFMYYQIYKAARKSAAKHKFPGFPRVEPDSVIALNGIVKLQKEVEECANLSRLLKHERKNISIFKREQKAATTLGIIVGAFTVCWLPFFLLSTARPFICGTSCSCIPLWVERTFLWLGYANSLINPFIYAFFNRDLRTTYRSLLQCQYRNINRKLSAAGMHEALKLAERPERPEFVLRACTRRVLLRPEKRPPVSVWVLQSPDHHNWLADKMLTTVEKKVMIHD
Text: For this purpose sDNA of human 5-HT7 receptor is expressed in CHO cells as it was described in [Shen Y, Monsma F J Jr, Metcalf M A, Jose P A, Hamblin M W, and Sibley DR. […] J. Biol. Chem. 1993, 268, 18200-18204]. […] J. Pharmacol. Exp. Ther. 1994, 268:1403-1410]. […] Methiothepin is used as positive control.

[4] = test system: imidazoline receptor I2; experiment: radioligand binding to imidazoline receptor I2 ([3H] Idazoxan); set-up: species or system rat; conditions: 10 μM ligand
Protocol: Determination of investigated compounds' binding to imidazoline I2 receptor is carried out according to the method described in [Brown C M, MacKinnon A C, McGrath J C, Spedding M and Kilpatrick A T, a2-Adrenoceptor subtypes and imidazoline-like binding in the rat brain. Br J. Pharmacol. 99:803-809, 1990]. […] Idazoxan is used as positive control.

[5] = molecular target: T4, recombinant human 5-HT2C receptor (Homo sapiens, UniProt P28335); experiment: radioligand binding to serotonin receptor 5-HT2C ([3H] Mesulergine); conditions: ligand concentration 1 μM
T4 construct: expressed in transfected cells; host or cells: CHO-K1
T4 sequence (P28335 33-458): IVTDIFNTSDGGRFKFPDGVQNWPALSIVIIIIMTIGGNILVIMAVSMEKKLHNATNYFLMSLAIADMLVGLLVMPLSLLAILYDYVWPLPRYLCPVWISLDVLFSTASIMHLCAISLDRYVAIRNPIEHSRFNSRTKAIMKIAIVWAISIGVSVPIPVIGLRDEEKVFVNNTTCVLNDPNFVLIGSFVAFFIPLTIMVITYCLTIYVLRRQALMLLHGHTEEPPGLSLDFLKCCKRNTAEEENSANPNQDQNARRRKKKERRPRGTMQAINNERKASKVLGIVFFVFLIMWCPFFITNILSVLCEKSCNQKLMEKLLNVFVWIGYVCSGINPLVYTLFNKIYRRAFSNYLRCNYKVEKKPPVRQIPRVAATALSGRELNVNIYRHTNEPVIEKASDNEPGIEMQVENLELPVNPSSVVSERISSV
Text: J. Neurochem. 69: 1449-1458, 1997]. […] SB242084 is used as positive control.

[6] = molecular target: T5, human α2A receptor (Homo sapiens, UniProt P08913); experiment: radioligand binding to adrenergic receptor α2A ([3H] MK-912); conditions: 10 μM ligand
T5 construct: expressed in transfected cells; host or cells: Sf9
T5 sequence (P08913 1-465): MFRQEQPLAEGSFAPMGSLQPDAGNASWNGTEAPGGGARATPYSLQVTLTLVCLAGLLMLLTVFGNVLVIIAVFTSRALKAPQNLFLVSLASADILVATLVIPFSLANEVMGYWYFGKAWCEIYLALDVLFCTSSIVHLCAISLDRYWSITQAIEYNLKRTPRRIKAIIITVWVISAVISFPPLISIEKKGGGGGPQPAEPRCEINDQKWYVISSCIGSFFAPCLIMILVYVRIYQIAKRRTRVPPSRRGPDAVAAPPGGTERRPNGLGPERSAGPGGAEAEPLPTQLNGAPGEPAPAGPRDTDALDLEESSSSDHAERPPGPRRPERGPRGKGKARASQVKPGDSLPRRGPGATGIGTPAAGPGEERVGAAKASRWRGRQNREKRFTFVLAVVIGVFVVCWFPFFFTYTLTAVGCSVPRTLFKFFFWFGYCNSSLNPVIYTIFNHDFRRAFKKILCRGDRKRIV
Text: J Pharmacol ExpTher. […] Yohimbine is used as positive control.

**Q.** What does the source list for Cc1ccc2c(c1)c1c(n2CCc2ccc(F)cc2)CCN(C)C1.Cl [1.1.2(1-16)•HCl]?
**A.** 5-HT1A % inhibition [1]: 37%; 5-HT6 % inhibition ([2]; 10 μM ligand): 103%; 5-HT7 % inhibition [3]: 95%

**Q.** With Cc1ccc2c(c1)c1c(n2CCc2ccc(C(F)(F)F)cc2)CCN(C)C1.Cl [1.1.2(1-18)•HCl] as the molecule, how does the 5-HT1A % inhibition [1] read?
**A.** 53%

**Q.** What about the 5-HT7 % inhibition [3] of the same molecule?
**A.** 103%

**Q.** For Cc1ccc2c(c1)c1c(n2CCc2ccc(C)nc2)CCCN(C)C1 [1.2.2(4-1)], which “imidazoline I2 receptor % inhibition” value [4] is on record?
**A.** 80%

**Q.** With Cc1ccc(CCn2c3c(c4cc(F)ccc42)CN(C)CCC3)cn1 [1.2.2(4-2)•2HCl] as the molecule, how does the inhibition at 1 µM [1] read?
**A.** 31%

**Q.** With Cc1ccc2c(c1)c1c(n2CCc2ccncc2)CCCN(C)C1 [1.2.2(5-2)] as the molecule, how does the inhibition at 1 µM [1] read?
**A.** 13%

**Q.** And the inhibition at 1 µM ([2]; ligand concentration 1 μM, read-out: 5-HT6 % inhibition)?
**A.** 84%

**Q.** And the inhibition at 1 µM [5]?
**A.** 92%

**Q.** And the “α-Adrenoceptor α2A, % inhibition” value [6]?
**A.** 74%

**Q.** Which results are given for CN1CCc2c(c3cc(F)ccc3n2CCCc2ccccc2)C1.Cl [1.3.3(8)•HCl]?
**A.** 5-HT1A % inhibition [1]: −4%; 5-HT7 % inhibition [3]: 83%

**Q.** With CN1CCc2c(c3cc(F)ccc3n2Cc2ccccc2)C1.Cl [1.9(3)•HCl] as the molecule, how does the 5-HT7 % inhibition [3] read?
**A.** 81%

**Q.** What does the source list for Cc1ccc2c(c1)c1c(n2Cc2ccccc2)CCCN(C)C1.Cl [1.10(4)•HCl]?
**A.** 5-HT1A % inhibition [1]: 19%; 5-HT7 % inhibition [3]: 75%
